Tests used:
CDK12 = CDK12 (Homo sapiens, UniProt Q9NYV4); assay: Western blot degradation of CDK12 (Example 2); format: cell-based; design: degradation of CDK12/13 protein in leukemia cells KASUMI-1, MV4-11, and Jurkat; endogenous in cells; details: DC50 classes, cell line not given; for DC50: read-out: CDK12 degradation Activity
Description: (§1) Western blot was used to determine the degradation of CDK12/13 protein in leukemia cells KASUMI-1, MV4-11, and Jurkat. The two compounds with the best degradation effects were further validated for their ability to degrade CDK12/13 protein in breast cancer cells MDA-MB-231 using a concentration gradient.
(§2) • Cell lines: KASUMI-1, MV4-11, Jurkat, or MDA-MB-231 • Culture medium: DMEM/RIPM-1640+10% Hyclone serum • Compound dissolution method: Compounds were dissolved in DMSO to prepare a 50 mM stock solution, and then diluted to the corresponding concentrations.
(§3) (1) In vitro cell culture: The selected cells were cultured in a 37 °C constant temperature incubator with 5% CO2. Once the cell density reached 70-90%, they were passaged for subsequent experiments.
(§4) (2) Cell seeding: Cells were digested, and the cell suspension was transferred to a 1.5 mL Eppendorf tube. After centrifugation at 1,000 rpm for 5 min, the cells were resuspended in 2 mL of culture medium and counted. The cell suspension was seeded in a 24-well plate at a density of 200,000 cells per well and allowed to adhere for 8-12 h.
(§5) (3) Compound treatment: The 50 mM compound stock solution was diluted with cell culture medium to a final concentration of 0.01 μM-3 μM. Cells were incubated in a 37 °C incubator with 5% CO2 for 3 h-48 h. The DMSO group served as the negative control.
(§6) At the end of the treatment time, the cells were collected and washed once with PBS. An appropriate volume of 4% SDS was added to lyse the cells, and the mixture was sonicated until no longer viscous. After centrifugation at 12,000 rpm at room temperature for 30 min, the supernatant was transferred to a new EP tube for protein quantification.
(§7) The exposure results were quantitatively analyzed using Image J software. First, the grayscale values of the bands were calculated using Image J. Then, the grayscale value of the target protein was divided by the grayscale value of the internal reference protein for normalization. The calculation formula is: […]
(§8) Where A is the grayscale value and D is the degradation rate.
(§9) In the figures, CDK12 and CDK13 are the target proteins under study, and β-Actin and GAPDH are the internal reference proteins. Internal reference proteins are used to indicate the total protein amount in each experimental group for quantitative analysis.

CDK13 = CDK13 (Homo sapiens, UniProt Q14004); assay: Western blot degradation of CDK13 (Example 2); format: cell-based; design: degradation of CDK12/13 protein in leukemia cells KASUMI-1, MV4-11, and Jurkat; endogenous in cells; details: DC50 classes, cell line not given; for DC50: read-out: CDK13 degradation Activity
Sequence of CDK13 (Q14004 whole entry): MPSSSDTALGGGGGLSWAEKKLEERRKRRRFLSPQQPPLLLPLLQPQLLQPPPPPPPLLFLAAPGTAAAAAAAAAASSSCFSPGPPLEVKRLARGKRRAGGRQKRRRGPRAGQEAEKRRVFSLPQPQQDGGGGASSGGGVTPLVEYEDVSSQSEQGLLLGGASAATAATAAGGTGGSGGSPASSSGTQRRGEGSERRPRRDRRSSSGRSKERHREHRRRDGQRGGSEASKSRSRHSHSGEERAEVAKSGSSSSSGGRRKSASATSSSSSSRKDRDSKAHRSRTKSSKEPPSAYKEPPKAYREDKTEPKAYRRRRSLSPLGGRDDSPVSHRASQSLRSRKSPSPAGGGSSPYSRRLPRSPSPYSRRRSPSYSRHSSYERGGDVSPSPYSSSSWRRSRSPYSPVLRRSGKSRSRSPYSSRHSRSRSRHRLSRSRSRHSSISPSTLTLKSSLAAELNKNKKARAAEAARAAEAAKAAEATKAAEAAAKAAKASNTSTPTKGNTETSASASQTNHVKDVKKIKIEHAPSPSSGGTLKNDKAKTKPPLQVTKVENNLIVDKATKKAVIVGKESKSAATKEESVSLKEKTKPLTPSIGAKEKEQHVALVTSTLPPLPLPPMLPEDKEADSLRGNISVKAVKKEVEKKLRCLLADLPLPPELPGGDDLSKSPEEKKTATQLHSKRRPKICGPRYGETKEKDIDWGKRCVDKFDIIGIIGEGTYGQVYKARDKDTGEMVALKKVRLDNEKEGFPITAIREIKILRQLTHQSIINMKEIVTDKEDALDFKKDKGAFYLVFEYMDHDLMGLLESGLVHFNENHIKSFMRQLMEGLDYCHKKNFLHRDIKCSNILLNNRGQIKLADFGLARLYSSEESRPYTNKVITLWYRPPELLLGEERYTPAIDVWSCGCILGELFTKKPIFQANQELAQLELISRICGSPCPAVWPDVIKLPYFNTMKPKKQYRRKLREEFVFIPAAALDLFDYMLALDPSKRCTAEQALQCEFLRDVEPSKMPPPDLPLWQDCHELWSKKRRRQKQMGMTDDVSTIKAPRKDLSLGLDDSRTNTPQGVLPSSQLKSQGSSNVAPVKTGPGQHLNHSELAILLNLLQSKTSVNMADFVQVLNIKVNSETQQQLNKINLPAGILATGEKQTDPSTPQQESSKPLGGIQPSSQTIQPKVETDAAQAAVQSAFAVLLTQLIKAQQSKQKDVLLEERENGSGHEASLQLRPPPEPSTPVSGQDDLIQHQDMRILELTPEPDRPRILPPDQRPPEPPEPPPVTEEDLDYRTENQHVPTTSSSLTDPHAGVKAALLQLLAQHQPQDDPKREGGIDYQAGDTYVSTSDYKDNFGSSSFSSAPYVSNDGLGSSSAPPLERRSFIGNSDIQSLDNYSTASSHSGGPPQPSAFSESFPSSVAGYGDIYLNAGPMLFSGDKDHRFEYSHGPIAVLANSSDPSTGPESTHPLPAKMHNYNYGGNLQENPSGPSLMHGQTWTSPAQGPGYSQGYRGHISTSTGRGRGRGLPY
Sequence of CDK13 (O75909 whole entry partner): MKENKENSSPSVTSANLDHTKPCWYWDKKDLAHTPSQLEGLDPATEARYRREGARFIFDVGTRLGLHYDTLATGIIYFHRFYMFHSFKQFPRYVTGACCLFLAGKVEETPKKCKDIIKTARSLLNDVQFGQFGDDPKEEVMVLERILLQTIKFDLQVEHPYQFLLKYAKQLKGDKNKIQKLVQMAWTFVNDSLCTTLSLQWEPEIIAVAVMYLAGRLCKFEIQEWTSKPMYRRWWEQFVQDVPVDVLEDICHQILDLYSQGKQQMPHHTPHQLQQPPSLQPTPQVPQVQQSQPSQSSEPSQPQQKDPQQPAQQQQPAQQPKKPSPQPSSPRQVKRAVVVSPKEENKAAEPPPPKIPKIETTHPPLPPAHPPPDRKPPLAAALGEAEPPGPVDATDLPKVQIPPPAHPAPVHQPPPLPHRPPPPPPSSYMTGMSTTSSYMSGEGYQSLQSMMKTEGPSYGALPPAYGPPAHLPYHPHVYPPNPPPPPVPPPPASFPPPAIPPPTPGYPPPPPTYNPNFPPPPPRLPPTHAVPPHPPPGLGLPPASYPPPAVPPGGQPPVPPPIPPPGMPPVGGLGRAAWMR
Description: as §1, §2, §3, §4, §5, §6, §7, §8, §9

Sequence of CDK12 (Q9NYV4 whole entry): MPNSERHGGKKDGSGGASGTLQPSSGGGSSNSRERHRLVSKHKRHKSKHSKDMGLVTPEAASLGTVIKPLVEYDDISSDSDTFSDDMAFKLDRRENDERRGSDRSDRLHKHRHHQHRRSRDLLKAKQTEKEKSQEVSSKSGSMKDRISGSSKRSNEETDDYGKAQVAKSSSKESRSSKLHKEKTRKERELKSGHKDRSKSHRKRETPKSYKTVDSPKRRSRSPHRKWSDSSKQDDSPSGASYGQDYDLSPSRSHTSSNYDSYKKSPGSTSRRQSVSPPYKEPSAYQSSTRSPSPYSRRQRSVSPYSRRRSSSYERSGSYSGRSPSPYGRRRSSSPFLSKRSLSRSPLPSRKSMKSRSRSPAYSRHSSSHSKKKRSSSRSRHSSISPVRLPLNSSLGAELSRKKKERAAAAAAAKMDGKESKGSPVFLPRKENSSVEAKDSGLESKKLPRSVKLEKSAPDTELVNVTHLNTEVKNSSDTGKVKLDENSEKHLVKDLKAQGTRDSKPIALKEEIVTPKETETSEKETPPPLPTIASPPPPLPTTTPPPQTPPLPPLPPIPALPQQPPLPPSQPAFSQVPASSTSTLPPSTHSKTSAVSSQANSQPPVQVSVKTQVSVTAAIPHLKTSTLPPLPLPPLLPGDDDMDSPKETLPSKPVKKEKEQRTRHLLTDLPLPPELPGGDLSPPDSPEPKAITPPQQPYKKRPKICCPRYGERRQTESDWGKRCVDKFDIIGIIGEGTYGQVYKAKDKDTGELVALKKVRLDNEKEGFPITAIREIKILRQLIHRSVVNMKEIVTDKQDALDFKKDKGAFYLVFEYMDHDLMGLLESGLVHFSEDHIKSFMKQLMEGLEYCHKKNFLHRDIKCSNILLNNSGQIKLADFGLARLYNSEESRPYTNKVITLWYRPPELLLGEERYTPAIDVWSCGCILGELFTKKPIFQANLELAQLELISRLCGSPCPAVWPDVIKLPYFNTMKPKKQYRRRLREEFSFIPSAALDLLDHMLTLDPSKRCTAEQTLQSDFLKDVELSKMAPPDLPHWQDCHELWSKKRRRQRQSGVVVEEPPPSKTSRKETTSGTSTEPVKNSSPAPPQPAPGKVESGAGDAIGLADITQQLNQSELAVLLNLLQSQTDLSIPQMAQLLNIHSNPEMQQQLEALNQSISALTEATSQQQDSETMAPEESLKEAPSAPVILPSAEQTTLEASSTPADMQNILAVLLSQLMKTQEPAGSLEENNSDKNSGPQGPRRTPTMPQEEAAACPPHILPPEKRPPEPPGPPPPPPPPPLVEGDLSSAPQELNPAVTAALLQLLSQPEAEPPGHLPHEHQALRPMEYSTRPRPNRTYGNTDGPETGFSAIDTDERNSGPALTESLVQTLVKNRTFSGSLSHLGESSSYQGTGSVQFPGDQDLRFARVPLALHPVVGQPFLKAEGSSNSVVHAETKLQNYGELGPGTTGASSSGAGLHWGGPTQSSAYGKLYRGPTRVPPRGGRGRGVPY
Sequence of CDK12 (O75909 whole entry partner): as the sequence (O75909 whole entry partner) above

Structure (SMILES) | DC50 (CDK12) [nM] | CDK13 degradation Activity (CDK13) | DC50 (CDK13) [nM] | CDK12 degradation Activity (CDK12)
N#Cc1ccc(N[C@H]2CC[C@H](N(C(=O)NCc3ccccc3)c3ccc(-c4ccc(=O)n(CCOCCOCCOCCNc5cccc6c5C(=O)N(C5CCC(=O)NC5=O)C6=O)c4)cc3)CC2)nc1 (stereo partly drawn) [Formula 48] | 3000 to 10000 | − |  | 
N#Cc1ccc(N[C@H]2CC[C@H](N(C(=O)NCc3ccccc3)c3ccc(-c4ccc(=O)n(CCOCCOCCOCCOCCNc5cccc6c5C(=O)N(C5CCC(=O)NC5=O)C6=O)c4)cc3)CC2)nc1 (stereo partly drawn) [Formula 49] | 500 to 1000 |  | 1000 to 3000 | 
N#Cc1ccc(N[C@H]2CC[C@H](N(C(=O)NCc3ccccc3)c3ccc(-c4ccc(=O)n(CCOCCOCCOCCOCCOCCNc5cccc6c5C(=O)N(C5CCC(=O)NC5=O)C6=O)c4)cc3)CC2)nc1 (stereo partly drawn) [Formula 50] | 3000 to 10000 |  | 3000 to 10000 | 
Cc1ncsc1-c1ccc([C@H](C)NC(=O)[C@@H]2C[C@@H](O)CN2C(=O)[C@@H](NC(=O)N2CCC3(CC2)CCN(c2ccc(N(C(=O)NCc4ccccc4)[C@H]4CC[C@H](Nc5ccc(C#N)cn5)CC4)cc2)CC3)C(C)(C)C)cc1 [Formula 51] | 3000 to 10000 |  | 3000 to 10000 | 
Cc1ncsc1-c1ccc([C@H](C)NC(=O)[C@@H]2C[C@@H](O)CN2C(=O)[C@@H](NC(=O)N2CCC3(CC2)CCN(c2ccc(N(C(=O)NCc4ccccc4)[C@H]4CC[C@H](Nc5ccc(C#N)cn5)CC4)cn2)CC3)C(C)(C)C)cc1 [Formula 52] | 3000 to 10000 | − |  | 
Cc1ncsc1-c1ccc([C@H](C)NC(=O)[C@@H]2C[C@@H](O)CN2C(=O)[C@@H](NC(=O)N2CCN(c3ccc(N(C(=O)NCc4ccccc4)[C@H]4CC[C@H](Nc5ncc6ccccc6n5)CC4)cc3)CC2)C(C)(C)C)cc1 [Formula 53] | 3000 to 10000 |  | 1000 to 3000 | 
Cc1ncsc1-c1ccc([C@H](C)NC(=O)[C@@H]2C[C@@H](O)CN2C(=O)[C@@H](NC(=O)N2CC3(CCN(c4ccc(N(C(=O)NCc5ccccc5)[C@H]5CC[C@H](Nc6ncc(C#N)cn6)CC5)cc4)CC3)C2)C(C)(C)C)cc1 [Formula 54] |  | − |  | −
Cc1ncsc1-c1ccc([C@H](C)NC(=O)[C@@H]2C[C@@H](O)CN2C(=O)[C@@H](NC(=O)N2CC3(CCN(c4ccc(N(C(=O)NCc5ccccc5)[C@H]5CC[C@H](Nc6ccc(C#N)cn6)CC5)cc4)CC3)C2)C(C)(C)C)cc1 [Formula 55] |  | − |  | −
Cc1ncsc1-c1ccc([C@H](C)NC(=O)[C@@H]2C[C@@H](O)CN2C(=O)[C@@H](NC(=O)COCCn2cc(-c3ccc(N(C(=O)NCc4ccccc4)[C@H]4CC[C@H](Nc5ccc(C#N)cn5)CC4)cc3)ccc2=O)C(C)(C)C)cc1 [Formula 56] |  | − |  | −
Cc1ncsc1-c1ccc([C@H](C)NC(=O)[C@@H]2C[C@@H](O)CN2C(=O)[C@@H](NC(=O)COCCOCCn2cc(-c3ccc(N(C(=O)NCc4ccccc4)[C@H]4CC[C@H](Nc5ccc(C#N)cn5)CC4)cc3)ccc2=O)C(C)(C)C)cc1 [Formula 57] |  | − |  | −
Cc1ncsc1-c1ccc([C@H](C)NC(=O)[C@@H]2C[C@@H](O)CN2C(=O)[C@@H](NC(=O)COCCOCCOCCn2cc(-c3ccc(N(C(=O)NCc4ccccc4)[C@H]4CC[C@H](Nc5ccc(C#N)cn5)CC4)cc3)ccc2=O)C(C)(C)C)cc1 [Formula 58] |  | − |  | −
Cc1ncsc1-c1ccc([C@H](C)NC(=O)[C@@H]2C[C@@H](O)CN2C(=O)[C@@H](NC(=O)COCCOCCOCCOCCn2cc(-c3ccc(N(C(=O)NCc4ccccc4)[C@H]4CC[C@H](Nc5ccc(C#N)cn5)CC4)cc3)ccc2=O)C(C)(C)C)cc1 [Formula 59] | 1000 to 3000 |  | 1000 to 3000 | 
Cc1ncsc1-c1ccc([C@H](C)NC(=O)[C@@H]2C[C@@H](O)CN2C(=O)[C@@H](NC(=O)COCCOCCOCCOCCOCCn2cc(-c3ccc(N(C(=O)NCc4ccccc4)[C@H]4CC[C@H](Nc5ccc(C#N)cn5)CC4)cc3)ccc2=O)C(C)(C)C)cc1 [Formula 60] | 1000 to 3000 |  | 500 to 1000 | 
Cc1ncsc1-c1ccc([C@H](C)NC(=O)[C@@H]2C[C@@H](O)CN2C(=O)[C@@H](NC(=O)Cn2cc(-c3ccc(N(C(=O)NCc4ccccc4)[C@H]4CC[C@H](Nc5ncc(C#N)cn5)CC4)cc3)ccc2=O)C(C)(C)C)cc1 [Formula 61] |  | − |  | −
Cc1ncsc1-c1ccc([C@H](C)NC(=O)[C@@H]2C[C@@H](O)CN2C(=O)[C@@H](NC(=O)COCCOc2ccc(-c3ccc4c(c3)CN(Cc3ccccc3)C(=O)N4[C@H]3CC[C@H](Nc4ccc(C#N)cn4)CC3)cn2)C(C)(C)C)cc1 [Formula 62] | 500 to 1000 |  | 500 to 1000 | 
Cc1ncsc1-c1ccc([C@H](C)NC(=O)[C@@H]2C[C@@H](O)CN2C(=O)[C@@H](NC(=O)CN2CCN(c3ccc(-c4ccc5c(c4)CCN(Cc4ccccc4)C(=O)N5[C@H]4CC[C@H](Nc5ccc(C#N)cn5)CC4)cn3)CC2)C(C)(C)C)cc1 [Formula 69] | 500 to 1000 |  | 100 to 500 | 
Cc1ncsc1-c1ccc([C@H](C)NC(=O)[C@@H]2C[C@@H](O)CN2C(=O)[C@@H](NC(=O)CN2CCN(c3ccc(-c4ccc5c(c4)CCCN(Cc4ccccc4)C(=O)N5[C@H]4CC[C@H](Nc5ccc(C#N)cn5)CC4)cn3)CC2)C(C)(C)C)cc1 [Formula 70] | < 100 |  | < 100 | 
Cc1ncsc1-c1ccc([C@H](C)NC(=O)[C@@H]2C[C@@H](O)CN2C(=O)[C@@H](NC(=O)CN2CCN(c3ncc(-c4ccc(N(C(=O)NCc5ccccc5)[C@H]5CC[C@H](Nc6ccc(C#N)cn6)CC5)cc4)cn3)CC2)C(C)(C)C)cc1 [Formula 79] | < 100 |  | < 100 | 
Cc1ncsc1-c1ccc([C@H](C)NC(=O)[C@@H]2C[C@@H](O)CN2C(=O)[C@@H](NC(=O)CN2CCN(c3ncc(-c4ccc(N(C(=O)NCc5ccccc5)[C@H]5CC[C@H](Nc6ccc(C#N)cn6)CC5)cc4)cn3)CC2)C(C)(C)C)cc1 [Formula 80] | < 100 |  | < 100 | 
Cc1ncsc1-c1ccc([C@H](C)NC(=O)[C@@H]2C[C@@H](O)CN2C(=O)[C@@H](NC(=O)CN2CCN(c3ncc(-c4ccc(N(C(=O)NCc5ccccc5)[C@H]5CC[C@H](Nc6ccc(C#N)cn6)CC5)cc4)cn3)CC2)C(C)(C)C)cc1 [Formula 82] | < 100 |  | < 100 | 
Cc1ncsc1-c1ccc([C@H](C)NC(=O)[C@@H]2C[C@@H](O)CN2C(=O)[C@@H](NC(=O)CN2CCN(c3ncc(-c4ccc(N(C(=O)NCc5ccccc5)[C@H]5CC[C@H](Nc6ccc(C#N)cn6)CC5)cc4)cn3)CC2)C(C)(C)C)cc1 [Formula 83] | < 100 |  | < 100 | 
Cc1ncsc1-c1ccc([C@H](C)NC(=O)[C@@H]2C[C@@H](O)CN2C(=O)[C@@H](NC(=O)CN2CCN(c3ncc(-c4ccc(N(C(=O)NCc5ccccc5)[C@H]5CC[C@H](Nc6ccc(C#N)cn6)CC5)cc4)cn3)CC2)C(C)(C)C)cc1 [Formula 84] | < 100 |  | < 100 | 
Cc1ncsc1-c1ccc([C@H](C)NC(=O)[C@@H]2C[C@@H](O)CN2C(=O)[C@@H](NC(=O)CN2CCN(c3ncc(-c4ccc(N(C(=O)NCc5ccccc5)[C@H]5CC[C@H](Nc6ccc(C#N)cn6)CC5)cc4)cn3)CC2)C(C)(C)C)cc1 [Formula 85] | < 100 |  | < 100 | 
Cc1ncsc1-c1ccc([C@H](C)NC(=O)[C@@H]2C[C@@H](O)CN2C(=O)[C@@H](NC(=O)CN2CCN(c3ncc(-c4ccc(N(C(=O)NCc5ccccc5)[C@H]5CC[C@H](Nc6ccc(C#N)cn6)CC5)cc4)cn3)CC2)C(C)(C)C)cc1 [Formula 86] | < 100 |  | < 100 | 

Reference: US20260327204A1, “DEGRADERS OF CYCLIN-DEPENDENT KINASE 12/13, COMPOSITIONS, AND USES THEREOF” (ZHEJIANG UNIVERSITY, priority 2023, published 2026)
